Experiments:
Type in all cases: in vivo
[1] = system: AMARE: Amaranthus retroflexus; assay: Post-emergence herbicidal effect
Summary of the method: (§1)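 Greenhouse, sandy loam; spray at one-leaf stage (2–3 wk post-sowing); WP/EC in water + 0.5% additive, 600 l/ha; visual rating ~3 wk later vs untreated, 0–100%.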

AVEFA: Avena fatua [2] = assay: Post-emergence herbicidal effect
Summary of the method: as §1

[3] = system: ECHCG: Echinochloa crus-galli; assay: Post-emergence herbicidal effect
Summary of the method: as §1

[4] = system: ALOMY: Alopecurus myosuroides; assay: Post-emergence herbicidal effect
Summary of the method: as §1

SETVI: Setaria viridis [5] = assay: Post-emergence herbicidal effect
Summary of the method: as §1

LOLRI: Lolium rigidum [6] = assay: Post-emergence herbicidal effect
Summary of the method: as §1

[7] = system: ABUTH: Abutilon theophrasti; assay: Post-emergence herbicidal effect
Summary of the method: as §1

PHBPU: Ipomoea purpurea [8] = assay: Pre-emergence herbicidal effect
Summary of the method: (§2)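 Herbicide, as WP or EC in aqueous spray with 0.5% additive, applied at 600 l/ha to soil surface covering freshly sown seeds. Pots held in greenhouse about 3 weeks, then activity scored visually versus untreated controls as percent (0% = like control, 100% = plants dead).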

[9] = system: ECHCG: Echinochloa crus-galli; assay: Pre-emergence herbicidal effect; conditions: pre-emergence
Summary of the method: as §2

[10] = system: MATIN: Matricaria inodora; assay: Pre-emergence herbicidal effect; conditions: pre-emergence; dosage 320 g/ha
Summary of the method: as §2

[11] = system: ALOMY: Alopecurus myosuroides; assay: Pre-emergence herbicidal effect; conditions: pre-emergence
Summary of the method: as §2

VERPE: Veronica persica [12] = assay: Pre-emergence herbicidal effect; conditions: dosage 320 g/ha
Summary of the method: as §2

SETVI: Setaria viridis [13] = assay: Pre-emergence herbicidal effect; conditions: pre-emergence
Summary of the method: as §2

[14] = system: AMARE: Amaranthus retroflexus; assay: Pre-emergence herbicidal effect; conditions: pre-emergence
Summary of the method: as §2

AVEFA: Avena fatua [15] = assay: Pre-emergence herbicidal effect
Summary of the method: as §2

STEME: Stellaria media [16] = assay: Pre-emergence herbicidal effect; conditions: pre-emergence; dosage 320 g/ha
Summary of the method: as §2

[17] = system: POLCO: Polygonum convolvulus; assay: Pre-emergence herbicidal effect
Summary of the method: as §2

LOLRI: Lolium rigidum [18] = assay: Pre-emergence herbicidal effect
Summary of the method: as §2

[19] = system: ABUTH: Abutilon theophrasti; assay: Pre-emergence herbicidal effect
Summary of the method: as §2

HORMU: Hordeum murinum = assay: Pre-emergence herbicidal effect; conditions: pre-emergence
Summary of the method: as §2

VIOTR: Viola tricolor [20] = assay: Pre-emergence herbicidal effect; conditions: dosage 320 g/ha
Summary of the method: as §2

PHBPU: Ipomoea purpurea [21] = assay: Post-emergence herbicidal effect; conditions: dosage 320 g/ha
Summary of the method: as §1

[22] = system: MATIN: Matricaria inodora; assay: Post-emergence herbicidal effect
Summary of the method: as §1

VERPE: Veronica persica [23] = assay: Post-emergence herbicidal effect; conditions: dosage 320 g/ha
Summary of the method: as §1

STEME: Stellaria media [24] = assay: Post-emergence herbicidal effect
Summary of the method: as §1

[25] = system: POLCO: Polygonum convolvulus; assay: Post-emergence herbicidal effect
Summary of the method: as §1

VIOTR: Viola tricolor [26] = assay: Post-emergence herbicidal effect
Summary of the method: as §1

Cc1ccc2c(c1)[C@H](Nc1ncc([C@H](C)O)c(N)n1)[C@@H](C)C2 (racemic) [drawing 11, reference compound]
0%: Herbicidal action against AVEFA (AVEFA: Avena fatua [2]; dosage 80 g/ha)
50%: Herbicidal action against AVEFA (AVEFA: Avena fatua [2]; dosage 320 g/ha)
80%: Herbicidal action against AMARE ([1]; dosage 80 g/ha)

Cc1ccc2c(c1)[C@H](Nc1ncc(C(C)(C)O)c(N)n1)[C@@H](C)C2 [drawing 10, reference compound]
70%: Herbicidal action against AMARE ([1]; dosage 320 g/ha)
60%: Herbicidal action against AMARE ([1]; dosage 80 g/ha)
0%: Herbicidal action against ECHCG ([3]; dosage 80 g/ha) | Herbicidal action against ALOMY ([4]; dosage 80 g/ha) | Herbicidal action against SETVI (SETVI: Setaria viridis [5]; dosage 80 g/ha) | Herbicidal action against AVEFA (AVEFA: Avena fatua [2]; dosage 320 g/ha) | Herbicidal action against LOLRI (LOLRI: Lolium rigidum [6]; dosage 80 g/ha) | Herbicidal action against LOLRI (LOLRI: Lolium rigidum [6]; dosage 320 g/ha)
10%: Herbicidal action against ECHCG ([3]; dosage 320 g/ha) | Herbicidal action against ALOMY ([4]; dosage 320 g/ha)
30%: Herbicidal action against SETVI (SETVI: Setaria viridis [5]; dosage 320 g/ha) | Herbicidal action against ABUTH ([7]; dosage 80 g/ha)

Cc1ccc2c(c1)[C@H](Nc1ncc(C(C)(C)O)c(C)n1)[C@@H](C)C2 [Example 1.6]
40%: Herbicidal action against LOLRI (LOLRI: Lolium rigidum [6]; dosage 80 g/ha)
100%: Herbicidal action against PHBPU (PHBPU: Ipomoea purpurea [8]; dosage 320 g/ha) | Herbicidal action against ECHCG ([9]; dosage 80 g/ha) | Herbicidal action against ECHCG ([9]; dosage 320 g/ha) | Herbicidal action against MATIN [10] | Herbicidal action against ALOMY ([11]; dosage 80 g/ha) | Herbicidal action against ALOMY ([11]; dosage 320 g/ha) | Herbicidal action against VERPE (VERPE: Veronica persica [12]) | Herbicidal action against SETVI (SETVI: Setaria viridis [13]; dosage 80 g/ha) | Herbicidal action against SETVI (SETVI: Setaria viridis [13]; dosage 320 g/ha) | Herbicidal action against AMARE ([14]; dosage 80 g/ha) | Herbicidal action against AMARE ([14]; dosage 320 g/ha) | Herbicidal action against AVEFA (AVEFA: Avena fatua [15]; dosage 320 g/ha) | Herbicidal action against STEME (STEME: Stellaria media [16]) | Herbicidal action against POLCO ([17]; dosage 80 g/ha) | Herbicidal action against POLCO ([17]; dosage 320 g/ha) | Herbicidal action against LOLRI (LOLRI: Lolium rigidum [18]; dosage 80 g/ha) | Herbicidal action against LOLRI (LOLRI: Lolium rigidum [18]; dosage 320 g/ha) | Herbicidal action against ABUTH ([19]; dosage 320 g/ha) | Herbicidal action against HORMU (HORMU: Hordeum murinum; dosage 80 g/ha) | Herbicidal action against HORMU (HORMU: Hordeum murinum; dosage 320 g/ha) | Herbicidal action against VIOTR (VIOTR: Viola tricolor [20]) | Herbicidal action against PHBPU (PHBPU: Ipomoea purpurea [21]) | Herbicidal action against ECHCG ([3]; dosage 80 g/ha) | Herbicidal action against ECHCG ([3]; dosage 320 g/ha) | Herbicidal action against ALOMY ([4]; dosage 320 g/ha) | Herbicidal action against SETVI (SETVI: Setaria viridis [5]; dosage 320 g/ha) | Herbicidal action against AMARE ([1]; dosage 80 g/ha) | Herbicidal action against AMARE ([1]; dosage 320 g/ha) | Herbicidal action against AVEFA (AVEFA: Avena fatua [2]; dosage 320 g/ha) | Herbicidal action against STEME (STEME: Stellaria media [24]; dosage 80 g/ha) | Herbicidal action against STEME (STEME: Stellaria media [24]; dosage 320 g/ha) | Herbicidal action against LOLRI (LOLRI: Lolium rigidum [6]; dosage 320 g/ha)
80%: Herbicidal action against PHBPU (PHBPU: Ipomoea purpurea [8]; dosage 80 g/ha) | Herbicidal action against AVEFA (AVEFA: Avena fatua [15]; dosage 80 g/ha) | Herbicidal action against VERPE (VERPE: Veronica persica [23]) | Herbicidal action against POLCO ([25]; dosage 320 g/ha) | Herbicidal action against ABUTH ([7]; dosage 80 g/ha)
90%: Herbicidal action against ABUTH ([19]; dosage 80 g/ha) | Herbicidal action against ALOMY ([4]; dosage 80 g/ha) | Herbicidal action against SETVI (SETVI: Setaria viridis [5]; dosage 80 g/ha) | Herbicidal action against ABUTH ([7]; dosage 320 g/ha) | Herbicidal action against VIOTR (VIOTR: Viola tricolor [26]; dosage 80 g/ha) | Herbicidal action against VIOTR (VIOTR: Viola tricolor [26]; dosage 320 g/ha)
20%: Herbicidal action against MATIN ([22]; dosage 80 g/ha)

Cc1ccc2c(c1)[C@H](Nc1ncc(C(C)(C)O)c(N)n1)[C@@H](C)C2 [drawing 12, reference compound]
0%: Herbicidal action against MATIN ([22]; dosage 80 g/ha) | Herbicidal action against STEME (STEME: Stellaria media [24]; dosage 80 g/ha) | Herbicidal action against STEME (STEME: Stellaria media [24]; dosage 320 g/ha) | Herbicidal action against POLCO ([25]; dosage 80 g/ha) | Herbicidal action against POLCO ([25]; dosage 320 g/ha)
50%: Herbicidal action against PHBPU (PHBPU: Ipomoea purpurea [21])
60%: Herbicidal action against MATIN ([22]; dosage 320 g/ha) | Herbicidal action against VIOTR (VIOTR: Viola tricolor [26]; dosage 80 g/ha)

Cc1ccc2c(c1)[C@H](Nc1ncc(C(C)(C)O)c(N)n1)[C@@H](C)C2 [drawing 9, reference compound]
0%: Herbicidal action against ECHCG ([3]; dosage 80 g/ha) | Herbicidal action against ALOMY ([4]; dosage 80 g/ha) | Herbicidal action against AVEFA (AVEFA: Avena fatua [2]; dosage 80 g/ha) | Herbicidal action against AVEFA (AVEFA: Avena fatua [2]; dosage 320 g/ha) | Herbicidal action against LOLRI (LOLRI: Lolium rigidum [6]; dosage 80 g/ha) | Herbicidal action against LOLRI (LOLRI: Lolium rigidum [6]; dosage 320 g/ha)
30%: Herbicidal action against SETVI (SETVI: Setaria viridis [5]; dosage 320 g/ha) | Herbicidal action against ABUTH ([7]; dosage 80 g/ha)
10%: Herbicidal action against ECHCG ([3]; dosage 320 g/ha) | Herbicidal action against ALOMY ([4]; dosage 320 g/ha)
70%: Herbicidal action against AMARE ([1]; dosage 320 g/ha)

Source: patent US11477982B2, “2-amino-5-oxyalkyl-pyrimidine derivatives and their use for controlling undesired plant growth” (Bayer CropScience Aktiengesellschaft, priority 2017, dated 2022)
